Columns and labels:
[1] = test system: pyocyanin production in P. aeruginosa; experiment: Pyocyanin quantification; type: cell-based, Pseudomonas aeruginosa; settings: for pyocyanin production: 6f 200 nM
Protocol: This assay was extended further to investigate the effect of 6f on pyocyanin production in different P. aeruginosa at 6f concentration of 200 nM (Figure 5b).
The experiment was performed following a published protocol with minor modifications. Strains were cultured into 5 mL of fresh medium overnight. […] Cells were centrifuged at 10 000 RCF for 10 min (Allegra 64R centrifuge, Beckman Coulter, High Wycombe, UK), and the supernatant was transferred to 15 mL falcon tubes with a HSW 10 mL Soft-Ject Syringe and a […] Sartorius syringe-driven filter (Fisher Brand, Loughborough, UK). Pyocyanin pigment was extracted into chloroform by mixing 7.5 mL of supernatant with 4.5 mL of chloroform. Pyocyanin was further extracted into 1.5 mL of 0.2 M HCL, which gave a pink/red solution, and the absorbance was measured at 520 nm.[47]

[2] = test system: A549 human lung epithelial carcinoma cell line; experiment: A549 cytotoxicity assay (resazurin / alamar blue); type: cell-based; settings: at concentrations up to 100 μM (1, 50, 100 μM), 24 h
Protocol: Establishing the safety profile of new chemical entities is paramount for further drug development. […] The assay employed resazurin reduction, a sensitive fluorometric assay widely used as a standard methodology in drug discovery research.[35] This assay relies on the ability of living cells to reduce resazurin to the fluorescent compound, resorufin, which indicates the rate of the metabolic activity as a means to quantify cell viability.
Cell viability was assessed according to Nimesh et al.[51] on A549 adenocarcinomic human alveolar basal epithelial cell line. The viability of the A549 cell line was assessed after overnight incubation with three concentrations (1, 50, and 100 μM) of the corresponding compound using alamar blue (resazurin) dye. Cells were maintained in the Dulbecco’s Modified Essential Medium (DMEM) supplemented with 10% fetal bovine serum (FBS) and 1% penicillin–streptomycin–neomycin (PSN). After that, 100 μL of suspended cells with a final concentration (1 × 10^4 cells/wall) were seeded in 96-well plates with 100 μL of (1, 50, 100 μM) concentrations of the tested compound was dispensed in sextuplicate. […] The plates were further incubated for 4–6 h and the intensity of the fluorescence was measured using an excitation light of 510 nm and measuring the fluorescence output at 590 nm. The cell viability in each well was normalized to the DMSO reading.

[3] = test system: GFP-labeled P. aeruginosa PAO1-L biofilms; experiment: Biofilm viability assay, method 2 (tobramycin, GFP-labeled biofilm, PI); type: cell-based, Pseudomonas aeruginosa
Protocol: Biofilms of PAO1-L were also tested for the impact of 6f on the potentiation of tobramycin activity (method 2).
Figure 7 Effect of 6f and tobramycin on GFP-labeled P. aeruginosa PAO1-L biofilms. (A) Representative CLSM images: (a) Untreated biofilm; (b) biofilm grown with 6f at 1 μM for 16 h; (c) biofilm treated with 100 μg/mL tobramycin for 2 or 6 h after 16 h of growth; (d) biofilm grown with 1 μM 6f and treated with (6f 1 μM), tobramycin (100 μg/mL) for 2 or 6 h after 16 h of growth. Dead cells and extracellular DNA were stained red with propidium iodide (PI). Three-dimensional (3D) sections and cross sections are shown. Scale bar represents 100 μm. (B) Quantitative analysis of biofilm biomass at different conditions of treatment compared with a solvent vehicle control.
Biofilms were cultivated on borosilicate glass coverslips in Petri dishes. P. aeruginosa strains, […], was transformed with plasmid pMMG, which constitutively expresses GFP from the Ptac promoter.[50] The tagged strain was grown at 37 °C, for 16 h, in 2 mL of RPMI-1640 (Lonza, Slough, UK), supplemented with 20 mM D-glucose (Sigma–Aldrich, Dorset, UK) and 2 μM FeCl3 (Sigma–Aldrich, Dorset, UK). Cultures were diluted 1:100 in fresh medium and allowed to grow for a further 4 h, or until an OD600 of 0.5 was reached. The mid logarithmic cultures were diluted to an OD600 of 0.01 in 25 mL of RPMI, supplemented with glucose and FeCl3, and inoculated into Petri dishes containing UV sterilized borosilicate glass coverslips (22 mm × 22 mm, thickness no1) (VWR, Lutterworth, UK). Bacterial cells were seeded at 37 ◦C under static conditions for 1.5 h, and compound 6f was supplemented to the 6f treated samples (6f, 6f + Tob samples) at a concentration of 1 μM before dishes were transferred to a shaker at 60 rpm and 37 ◦C for 16 h to form mature biofilms. Tobramycin and propidium iodide were added to the 16 h old cultures at concentrations of 100 μg/mL and 2 μM, respectively, followed by further incubation for 2 or 6 h. […]

[4] = test system: PqsR (PqsR-controlled pqsA promoter, PA14 mCTX::PpqsA-lux); experiment: Bioluminescent reporter assay, PA14 mCTX::PpqsA-lux; type: cell-based; settings: Pseudomonas aeruginosa, PA14, read-out: IC50 (μM) PA14 mCTX::PpqsA-lux
Protocol: (§1) An extensive SAR was performed on 6a to investigate the role of substitutions around various positions of the benzimidazole ring (groups R1–R3) as well as the aromatic tail (groups R4–R5) to fine-tune the potency of this series (6a–u) (Table 2). The activity of these analogues to inhibit the pqs QS system was evaluated in the PAO1-L and PA14 strains (that belong to the two major P. aeruginosa genomic lineages), both harboring a chromosomally integrated mCTX::PpqsA-lux transcriptional fusion to report for the activity of pqs system. Successful pharmacological blocking of AQ signal reception at the level of PqsR leads to a reduced transcription of the pqsA-lux genes and ultimately reduction in the luminescence readout.
(§2) Strains PA14 mCTX::PpqsA-lux and PAO1-L mCTX::PpqsA-lux were used to detect PqsR-controlled activation of the pqsA promoter, as previously described,[45] and the assay was performed according to a published method.[46] For initial screening, the compounds were tested at a concentration of 10 μM, which was prepared from a 10 mM stock, in DMSO.

[5] = test system: PqsR (PqsR-controlled pqsA promoter, PAO1-L mCTX::PpqsA-lux); experiment: Bioluminescent reporter assay, PAO1-L mCTX::PpqsA-lux; type: cell-based, Pseudomonas aeruginosa; settings: Pseudomonas aeruginosa, PAO1, read-out: IC50 (μM) PAO1-L mCTX::PpqsA-lux
Protocol: as §1, §2

**Q.** `CC(C)n1c(NCC(O)COc2ccc(CC#N)cc2)nc2ccc(Cl)cc21` (stereo not drawn) [Compound 6f, 2-(4-(3-((6-Chloro-1-isopropyl-1H-benzo[d]imidazol-2-yl)amino)-2-hydroxypropoxy)phenyl) Acetonitrile] was tested. Which pyocyanin production ([1]; IPCD1451) did it give?
**A.** Its pyocyanin production is “nonsignificant inhibition”.

**Q.** And the pyocyanin production ([1]; all strains except IPCD1451)?
**A.** Its pyocyanin production is “inhibited pyocyanin production”.

**Q.** And the “inhibition of pyocyanin production” value ([1]; PAO1-L, concentration three times the IC50, relative to DMSO)?
**A.** Its value is about 80%.

**Q.** What about the “cytotoxicity for A549 cells” value [2] of the same compound?
**A.** Its value is “not cytotoxic”.

**Q.** What about the “biofilm killing, combination with tobramycin” value ([3]; 6f 1 μM + tobramycin 100 μg/mL, 2 and 6 h of incubation) of the same compound?
**A.** Its value is “enhanced the killing”.

**Q.** And the “live cells in biofilm, combination with tobramycin” value ([3]; 6f 1 μM + tobramycin 100 μg/mL, 6 h)?
**A.** The value was “no live cells present”.

**Q.** What about the “viability of preformed biofilms, 6f on its own” value ([3]; PAO1-L biofilm, 6f 1 μM) of the same compound?
**A.** The value was “did not impact on the viability”.

**Q.** What about the IC50 [4] of the same compound?
**A.** Its IC50 is 0.09 ± 0.01 µM.

**Q.** And the IC50 [5]?
**A.** The IC50 was 0.07 ± 0.02 µM.

Source: paper PMC10823468, “Design, Synthesis, and Evaluation of New 1H-Benzo[d]imidazole Based PqsR Inhibitors as Adjuvant Therapy for Pseudomonas aeruginosa Infections” (Journal of Medicinal Chemistry, 2024)
